Reference: publication PMC2935846 (Journal of the American Chemical Society, 2009)

Legend:
[1] = tested on: E. coli cytoplasmic membrane; test: Membrane depolarization, diSC3; type: cell-based, Escherichia coli; conditions: E. coli 2 × 10^7 cells/mL, 50 nM diSC3(5)
E. coli cells = test: SYTOX Green uptake; conditions: 5 μM peptide; for SYTOX Green influx into E. coli (in words): E. coli cells in PBS
[2] = Leakage of terbium from lipid vesicles; conditions: peptide:lipid 1:100, method as in earlier work
C. neoformans cells = test: SYTOX Green uptake; type: cell-based, Cryptococcus neoformans; conditions: 5 μM peptide, 2 × 10^7 cells/mL in PBS, 1 μM SYTOX Green

CC(C)[C@@H]1NC(=O)[C@H](C)OC(=O)[C@@H](C(C)C)NC(=O)[C@@H](C(C)C)OC(=O)[C@H](C(C)C)NC(=O)[C@H](C)OC(=O)[C@@H](C(C)C)NC(=O)[C@@H](C(C)C)OC(=O)[C@H](C(C)C)NC(=O)[C@H](C)OC(=O)[C@@H](C(C)C)NC(=O)[C@@H](C(C)C)OC1=O [valinomycin]
collapse of the membrane potential (in words) ([1]; 40 μM): Complete collapse of the membrane potential

CC1(C)S[C@@H]2[C@H](NC(=O)[C@H](N)c3ccccc3)C(=O)N2[C@H]1C(=O)O [ampicillin]
SYTOX Green influx into E. coli (in words) (E. coli cells): no effect

CC[C@H](C)[C@H](N)C(=O)N[C@@H](CC(C)C)C(=O)N1CCC[C@H]1C(=O)N[C@@H](Cc1c[nH]c2ccccc12)C(=O)N[C@@H](CCCCN)C(=O)N[C@@H](Cc1c[nH]c2ccccc12)C(=O)N1CCC[C@H]1C(=O)N[C@@H](Cc1c[nH]c2ccccc12)C(=O)N[C@@H](Cc1c[nH]c2ccccc12)C(=O)N1CCC[C@H]1C(=O)N[C@@H](Cc1c[nH]c2ccccc12)C(=O)N[C@@H](CCCNC(=N)N)C(=O)N[C@@H](CCCNC(=N)N)C(N)=O [Indolicidin]
% of Tb leakage, P:L 1:100 [2]: 8%
SYTOX Green influx into E. coli (in words) (E. coli cells): only a very small amount of dye influx

CC[C@H](C)[C@H](NC(=O)CN)C(=O)NCC(=O)N[C@@H](C)C(=O)N[C@H](C(=O)N[C@@H](CC(C)C)C(=O)N[C@@H](CCCCN)C(=O)N[C@H](C(=O)N[C@@H](CC(C)C)C(=O)N[C@H](C(=O)N[C@H](C(=O)NCC(=O)N[C@@H](CC(C)C)C(=O)N1CCC[C@H]1C(=O)N[C@@H](C)C(=O)N[C@@H](CC(C)C)C(=O)N[C@H](C(=O)N[C@@H](CO)C(=O)N[C@@H](Cc1c[nH]c2ccccc12)C(=O)N[C@H](C(=O)N[C@@H](CCCCN)C(=O)N[C@@H](CCCNC(=N)N)C(=O)N[C@@H](CCCCN)C(=O)N[C@@H](CCCNC(=N)N)C(=O)N[C@@H](CCC(N)=O)C(=O)N[C@@H](CCC(N)=O)C(N)=O)[C@@H](C)CC)[C@@H](C)CC)[C@@H](C)O)[C@@H](C)O)C(C)C)C(C)C [Melittin]
time of membrane potential dissipation ([1]; 5 μM peptide, 25°C): less than 30 seconds
permeabilization of fungal cells, SYTOX Green (in words) (C. neoformans cells): completely permeabilizes the fungal cells in just a few minutes
% of Tb leakage, P:L 1:100 [2]: 100%
time to 50% of the maximum SYTOX Green uptake (E. coli cells; E. coli in PBS): about 15 minutes
time to complete SYTOX Green leakage (E. coli cells; E. coli in PBS): ≤ 25 min
